Test results as given in article PMC5463454 (Cancer discovery, 2016).
Values joined by “and” are separate entries in the source; they are usually repeats but may differ in a detail not shown here. Equal values may be shown once. Read-outs that look alike come from different tables or passages of the source.

Key:
[1] = system: cancer cell lines; experiment: Cell viability assay; type: cell-based
[2] = clinical; type: in vivo; conditions: for half-life / AUC(0-t) / Cmax / Tmax: human, plasma, oral
[3] = 100 mg (n = 2), steady state, individual values
[4] = 100 mg, Day 15, 100 mg (n = 2), steady state, individual values

Question: With `CC(C)NC[C@@H](C(=O)N1CCN(c2ncnc3c2[C@H](C)C[C@H]3O)CC1)c1ccc(Cl)cc1` [Ipatasertib] as the compound, how does the IC50 ([1]; read-out: mean IC50 (±SEM), cell viability, cell lines with PTEN loss or PIK3CA mutations, n = 60) read?
Answer: The IC50 was 4.8 ± 0.56 µM.

Question: What about the IC50 ([1]; read-out: mean IC50, cell viability, cells with PIK3CA alterations, n = 40) of the same compound?
Answer: Its IC50 is 5 ± 0.71 µM.

Question: And the IC50 ([1]; read-out: mean IC50, cell viability, cells with PTEN alterations, n = 33)?
Answer: The IC50 was 3.8 ± 0.73 µM.

Question: And the IC50 ([1]; read-out: mean IC50, cell viability, cells without PIK3CA alterations, n = 60)?
Answer: Its IC50 is 7.1 ± 0.5 µM.

Question: What about the IC50 ([1]; read-out: mean IC50, cell viability, cells without PTEN alterations, n = 67) of the same compound?
Answer: The IC50 was 7.4 ± 0.46 µM.

Question: What about the IC50 ([1]; read-out: median IC50, cell viability, cell lines with PTEN loss or PIK3CA mutations, n = 60) of the same compound?
Answer: The IC50 was 2.2 µM.

Question: And the IC50 ([1]; read-out: median IC50, cell viability, cells with PIK3CA alterations, n = 40)?
Answer: The IC50 was 2.2 µM.

Question: What about the IC50 ([1]; read-out: median IC50, cell viability, cells with PTEN alterations, n = 33) of the same compound?
Answer: The IC50 was 1.3 µM.

Question: What about the IC50 ([1]; read-out: median IC50, cell viability, cells without PIK3CA alterations, n = 60) of the same compound?
Answer: The IC50 was 10 µM.

Question: And the IC50 ([1]; read-out: median IC50, cell viability, cells without PTEN alterations, n = 67)?
Answer: The IC50 was 10 µM.

Question: What about the “Accumulation ratio, AUC0–24,ss (day 15)/AUC0–24 (day 1)” value (“Accumulation ratio, AUC0–24,ss” for short) ([2]; 25 mg (n = 3), geometric mean (%CV)) of the same compound?
Answer: The value was 2.78 (15.7%).

Question: And the “Accumulation ratio, AUC0–24,ss” value ([2]; 50 mg (n = 3), geometric mean (%CV))?
Answer: The value was 2.43 (32.1%).

Question: And the “AUC0–24,ss, Day 15” value [2, 3]?
Answer: Its value is 568 ng·h/mL and 239 ng·h/mL.

Question: What about the “Cmax, Day 15” value [2, 3] of the same compound?
Answer: The value was 53.0 ng/mL.

Question: What about the “Accumulation ratio, AUC0–24,ss” value ([2]; 100 mg (n = 2), individual values) of the same compound?
Answer: Its value is 2.57 and 0.927.

Question: And the “clinical exposure relative to preclinical efficacy” value ([2]; 100 mg, most sensitive preclinical models)?
Answer: Its value is “equivalent to TGI 60”.

Question: What about the “Accumulation ratio, AUC0–24,ss” value ([2]; 200 mg (n = 3), geometric mean (%CV)) of the same compound?
Answer: Its value is 2.44 (28.1%).

Question: What about the “Accumulation ratio, AUC0–24,ss” value ([2]; 400 mg (n = 3), geometric mean (%CV)) of the same compound?
Answer: The value was 1.95 (36.5%).

Question: What about the “t1/2, Day 1” value ([2]; 600 mg (n = 7), single dose, geometric mean (range)) of the same compound?
Answer: Its value is 45.8 (36.7–55.0) h.

Question: What about the “Accumulation ratio, AUC0–24,ss” value ([2]; 600 mg (n = 7), geometric mean (%CV)) of the same compound?
Answer: The value was 1.80 (73.6%).

Question: What about the “Accumulation ratio, AUC0–24,ss” value ([2]; 800 mg (n = 5), geometric mean (%CV)) of the same compound?
Answer: Its value is 2.22 (20.0%).

Question: And the “mean accumulation ratio (AUC0–24,ss/AUC0–24, day 1), range over doses” value ([2]; doses of 200 mg to 800 mg)?
Answer: Its value is 1.80 to 2.44.

Question: What about the half-life [2] of the same compound?
Answer: The half-life was 1910 to 3180 min.

Question: What about the half-life ([2]; 25 mg) of the same compound?
Answer: Its half-life is 268 min.

Question: What about the AUC(0-t) ([2]; 25 mg, AUC0–24, Day 1, 25 mg (n = 3), single dose, geometric mean (%CV)) of the same compound?
Answer: The AUC(0-t) was 31.8 ng·h/mL.

Question: What about the AUC(0-t) ([2]; 25 mg, AUC0–24,ss, Day 15, 25 mg (n = 3), steady state, geometric mean (%CV)) of the same compound?
Answer: Its AUC(0-t) is 88.3 ng·h/mL.

Question: And the Cmax ([2]; 25 mg, Day 1, 25 mg (n = 3), single dose, geometric mean (%CV))?
Answer: Its Cmax is 8.93 ng/mL.

Question: What about the Cmax ([2]; 25 mg, Day 15, 25 mg (n = 3), steady state, geometric mean (%CV)) of the same compound?
Answer: Its Cmax is 8.92 ng/mL.

Question: And the Tmax ([2]; 25 mg, Day 1, 25 mg (n = 3), single dose, median (range))?
Answer: The Tmax was 0.5 h.

Question: What about the Tmax ([2]; 25 mg, Day 15, 25 mg (n = 3), steady state, median (range)) of the same compound?
Answer: The Tmax was 0.5 h.

Question: And the half-life ([2]; 50 mg)?
Answer: Its half-life is 606 min.

Question: And the AUC(0-t) ([2]; 50 mg, AUC0–24, Day 1, 50 mg (n = 3), single dose, geometric mean (%CV))?
Answer: The AUC(0-t) was 70.3 ng·h/mL.

Question: What about the AUC(0-t) ([2]; 50 mg, AUC0–24,ss, Day 15, 50 mg (n = 3), steady state, geometric mean (%CV)) of the same compound?
Answer: Its AUC(0-t) is 171 ng·h/mL.

Question: What about the Cmax ([2]; 50 mg, Day 1, 50 mg (n = 3), single dose, geometric mean (%CV)) of the same compound?
Answer: The Cmax was 13.3 ng/mL.

Question: What about the Cmax ([2]; 50 mg, Day 15, 50 mg (n = 3), steady state, geometric mean (%CV)) of the same compound?
Answer: Its Cmax is 33.9 ng/mL.

Question: What about the Tmax ([2]; 50 mg, Day 1, 50 mg (n = 3), single dose, median (range)) of the same compound?
Answer: Its Tmax is 2.92 h.

Question: And the Tmax ([2]; 50 mg, Day 15, 50 mg (n = 3), steady state, median (range))?
Answer: The Tmax was 1 h.

Question: What about the half-life ([2]; 100 mg) of the same compound?
Answer: Its half-life is 1910 min.

Question: What about the AUC(0-t) ([2]; 100 mg, AUC0–24, Day 1, 100 mg (n = 3), single dose, geometric mean (%CV)) of the same compound?
Answer: The AUC(0-t) was 260 ng·h/mL.

Question: And the Cmax ([2]; 100 mg, Day 1, 100 mg (n = 3), single dose, geometric mean (%CV))?
Answer: The Cmax was 59.8 ng/mL.

Question: And the Cmax [2, 4]?
Answer: Its Cmax is 76.2 ng/mL.

Question: What about the Tmax ([2]; 100 mg, Day 1, 100 mg (n = 3), single dose, median (range)) of the same compound?
Answer: Its Tmax is 2.97 h.

Question: What about the Tmax [2, 4] of the same compound?
Answer: The Tmax was 0.5 to 0.67 h.

Question: And the half-life ([2]; 200 mg)?
Answer: The half-life was 2350 min.

Question: What about the AUC(0-t) ([2]; 200 mg, AUC0–24, Day 1, 200 mg (n = 3), single dose, geometric mean (%CV)) of the same compound?
Answer: Its AUC(0-t) is 726 ng·h/mL.

Question: And the AUC(0-t) ([2]; 200 mg, AUC0–24,ss, Day 15, 200 mg (n = 3), steady state, geometric mean (%CV))?
Answer: Its AUC(0-t) is 1770 ng·h/mL.

Question: What about the Cmax ([2]; 200 mg, Day 1, 200 mg (n = 3), single dose, geometric mean (%CV)) of the same compound?
Answer: The Cmax was 130 ng/mL.

Question: And the Cmax ([2]; 200 mg, Day 15, 200 mg (n = 3), steady state, geometric mean (%CV))?
Answer: The Cmax was 183 ng/mL.

Question: And the Tmax ([2]; 200 mg, Day 1, 200 mg (n = 3), single dose, median (range))?
Answer: The Tmax was 3 h.

Question: And the Tmax ([2]; 200 mg, Day 15, 200 mg (n = 3), steady state, median (range))?
Answer: The Tmax was 1 h.

Question: And the half-life ([2]; 400 mg)?
Answer: Its half-life is 3180 min.

Question: And the AUC(0-t) ([2]; 400 mg, AUC0–24, Day 1, 400 mg (n = 3), single dose, geometric mean (%CV))?
Answer: The AUC(0-t) was 1650 ng·h/mL.

Question: And the AUC(0-t) ([2]; 400 mg, AUC0–24,ss, Day 15, 400 mg (n = 3), steady state, geometric mean (%CV))?
Answer: The AUC(0-t) was 3210 ng·h/mL.

Question: And the Cmax ([2]; 400 mg, Day 1, 400 mg (n = 3), single dose, geometric mean (%CV))?
Answer: Its Cmax is 506 ng/mL.

Question: What about the Cmax ([2]; 400 mg, Day 15, 400 mg (n = 3), steady state, geometric mean (%CV)) of the same compound?
Answer: Its Cmax is 838 ng/mL.

Question: And the Tmax ([2]; 400 mg, Day 1, 400 mg (n = 3), single dose, median (range))?
Answer: The Tmax was 1 h.

Question: What about the Tmax ([2]; 400 mg, Day 15, 400 mg (n = 3), steady state, median (range)) of the same compound?
Answer: The Tmax was 1 h.

Question: And the half-life ([2]; 600 mg)?
Answer: The half-life was 2750 min.

Question: And the AUC(0-t) ([2]; 600 mg, AUC0–24, Day 1, 600 mg (n = 7), single dose, geometric mean (%CV))?
Answer: The AUC(0-t) was 2670 ng·h/mL.

Question: What about the AUC(0-t) ([2]; 600 mg, AUC0–24,ss, Day 15, 600 mg (n = 7), steady state, geometric mean (%CV)) of the same compound?
Answer: The AUC(0-t) was 4450 ng·h/mL.

Question: What about the Cmax ([2]; 600 mg, Day 1, 600 mg (n = 7), single dose, geometric mean (%CV)) of the same compound?
Answer: Its Cmax is 488 ng/mL.

Question: And the Cmax ([2]; 600 mg, Day 15, 600 mg (n = 7), steady state, geometric mean (%CV))?
Answer: Its Cmax is 748 ng/mL.

Question: What about the Tmax ([2]; 600 mg, Day 1, 600 mg (n = 7), single dose, median (range)) of the same compound?
Answer: The Tmax was 0.58 h.

Question: And the Tmax ([2]; 600 mg, Day 15, 600 mg (n = 7), steady state, median (range))?
Answer: The Tmax was 0.83 h.

Question: What about the half-life ([2]; 800 mg) of the same compound?
Answer: The half-life was 2630 min.

Question: What about the AUC(0-t) ([2]; 800 mg, AUC0–24, Day 1, 800 mg (n = 7), single dose, geometric mean (%CV)) of the same compound?
Answer: Its AUC(0-t) is 3220 ng·h/mL.

Question: What about the AUC(0-t) ([2]; 800 mg, AUC0–24,ss, Day 15, 800 mg (n = 5), steady state, geometric mean (%CV)) of the same compound?
Answer: Its AUC(0-t) is 6670 ng·h/mL.

Question: And the Cmax ([2]; 800 mg, Day 1, 800 mg (n = 7), single dose, geometric mean (%CV))?
Answer: Its Cmax is 479 ng/mL.

Question: What about the Cmax ([2]; 800 mg, Day 15, 800 mg (n = 5), steady state, geometric mean (%CV)) of the same compound?
Answer: Its Cmax is 879 ng/mL.
